Measured values: patent publication US20090028925A1, “Novel Phosphinic Acid-Containing Thyromimetics” (priority 2005, published 2009)
Like-named read-outs stand apart in the source and are kept apart here.

Experiments:
[1] = target: T1, human thyroid hormone receptors TRα1 (Homo sapiens, UniProt P10827); experiment: Receptor binding to TRα1 (gel filtration and scintillation proximity assay, labeled T3); settings: read-out: Ki TRα
T1 construct: made in house; host or cells: Sf9 insect cells (baculovirus)
T1 sequence (P10827 1-410 isoform P10827-2): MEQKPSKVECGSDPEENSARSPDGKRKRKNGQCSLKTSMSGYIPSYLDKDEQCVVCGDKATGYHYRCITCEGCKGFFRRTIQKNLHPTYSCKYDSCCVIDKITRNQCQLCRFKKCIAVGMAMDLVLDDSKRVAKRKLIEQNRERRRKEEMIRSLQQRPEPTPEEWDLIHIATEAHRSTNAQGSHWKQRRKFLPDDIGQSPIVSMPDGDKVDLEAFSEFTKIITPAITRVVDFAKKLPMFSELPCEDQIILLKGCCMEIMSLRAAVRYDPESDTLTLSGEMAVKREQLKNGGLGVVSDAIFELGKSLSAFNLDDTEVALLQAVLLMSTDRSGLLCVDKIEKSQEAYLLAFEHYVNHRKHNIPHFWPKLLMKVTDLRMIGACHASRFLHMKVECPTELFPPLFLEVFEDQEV
T1 sequence (P19793 1-462 partner): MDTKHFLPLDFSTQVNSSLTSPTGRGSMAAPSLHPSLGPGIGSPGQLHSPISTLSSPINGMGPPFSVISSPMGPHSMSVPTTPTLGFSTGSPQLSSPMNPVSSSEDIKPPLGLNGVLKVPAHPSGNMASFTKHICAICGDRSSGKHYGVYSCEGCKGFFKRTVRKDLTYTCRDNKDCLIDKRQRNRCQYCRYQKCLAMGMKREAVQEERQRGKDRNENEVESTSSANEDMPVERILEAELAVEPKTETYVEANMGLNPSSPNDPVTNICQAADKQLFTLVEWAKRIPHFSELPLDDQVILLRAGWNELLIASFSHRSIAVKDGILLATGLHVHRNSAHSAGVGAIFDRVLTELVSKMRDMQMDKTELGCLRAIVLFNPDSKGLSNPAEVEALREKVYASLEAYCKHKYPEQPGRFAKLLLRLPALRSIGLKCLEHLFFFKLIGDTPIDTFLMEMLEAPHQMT

[2] = target: T2, human thyroid hormone receptors TRβ1 (Homo sapiens, UniProt P10828); experiment: Receptor binding to TRβ1 (gel filtration and scintillation proximity assay, labeled T3); settings: read-out: Ki TRβ
T2 construct: made in house; host or cells: Sf9 insect cells (baculovirus)
T2 sequence (P10828 1-461): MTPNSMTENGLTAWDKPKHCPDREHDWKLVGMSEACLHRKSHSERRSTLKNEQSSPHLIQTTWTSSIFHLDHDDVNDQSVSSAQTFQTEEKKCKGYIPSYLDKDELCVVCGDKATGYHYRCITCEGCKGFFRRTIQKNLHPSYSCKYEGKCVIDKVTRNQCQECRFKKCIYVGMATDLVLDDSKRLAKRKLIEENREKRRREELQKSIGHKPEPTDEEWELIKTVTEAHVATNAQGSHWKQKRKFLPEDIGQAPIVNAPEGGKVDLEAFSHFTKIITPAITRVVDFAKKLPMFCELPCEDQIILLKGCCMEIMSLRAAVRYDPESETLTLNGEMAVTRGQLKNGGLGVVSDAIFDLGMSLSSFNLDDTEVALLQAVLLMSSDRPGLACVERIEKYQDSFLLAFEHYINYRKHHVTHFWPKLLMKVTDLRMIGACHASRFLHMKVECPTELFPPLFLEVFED
T2 sequence (P19793 1-462 partner): T1 sequence (P19793 1-462 partner)

plasma cholesterol = experiment: Cholesterol lowering in hypercholesterolemic rats; type: in vivo; settings: Rattus norvegicus, read-out: % Cholesterol Lowering
[3] = Continuous infusion study in rats on a cholesterol-containing diet; type: in vivo; settings: continuous infusion 1 mg/kg/day; for cholesterol lowering effects: day 7 and day 14; for cardiovascular parameters (heart rate, LV dP/dt, systolic and diastolic blood pressure): day 7 or day 14
Method: Screening for thyromimetic activity was performed in normal rats maintained on a cholesterol-containing diet. Compounds were administered by continuous infusion using an osmotic pump at 1 mg/kg/day.

[4] = po, delivered p.o. (0.2 mg/kg/d), percentage change from pre-dose cholesterol
[5] = ip, delivered i.p (0.2 mg/kg/d), percentage change from pre-dose cholesterol

| Ki ([1]; SPA data) [nM] | Ki ([2]; SPA data) [nM] | Ki [1] [nM] | Ki [2] [nM] | Structure (SMILES) | change in vivo at 0.2 mg/kg/day (plasma cholesterol; [4]) [%] | cholesterol lowering effects [3] | cardiovascular parameters (heart rate, LV dP/dt, systolic and diastolic blood pressure) [3] | change in vivo at 0.2 mg/kg/day (plasma cholesterol; [5]) [%] | change in vivo at 0.2 mg/kg/day (plasma cholesterol; po) [%] |
| --- | --- | --- | --- | --- | --- | --- | --- | --- | --- |
| 98 | 7.6 | – | – | Cc1cc(OC(F)(F)P(=O)(O)O)cc(C)c1Cc1ccc(O)c(C(C)C)c1 [Compound 7-6, difluoro-[3,5-dimethyl-4-(4′-hydroxy-3′-iso-propylbenzyl)phenoxy]methylphosphonic acid] | – | – | – | -13.5 | – |
| – | – | 62 | 9.7 | CCc1cc(Cc2c(C)cc(OCP(=O)(O)O)cc2C)ccc1O [Compound 7-8, [3,5-dimethyl-4-[3′-ethyl-4′-hydroxybenzyl]phenoxy]methylphosphonic acid] | – | – | – | -28.6 | – |
| 429 | 52 | – | – | CC(C)c1cc(Cc2c(Cl)cc(OCP(=O)(O)O)cc2Cl)cc(Br)c1O [Compound 7-14, [3,5-dichloro-4-(5′-bromo-4′-hydroxy-3′-iso-propylbenzyl)phenoxy]methylphosphonic acid] | – | – | – | -32.9 | – |

The remaining lines, values behind:

| Structure (SMILES) | Ki ([1]; SPA data) [nM] | Ki ([2]; SPA data) [nM] | Ki [1] [nM] | Ki [2] [nM] | change in vivo at 0.2 mg/kg/day (plasma cholesterol; [4]) [%] | cholesterol lowering effects [3] | cardiovascular parameters (heart rate, LV dP/dt, systolic and diastolic blood pressure) [3] | change in vivo at 0.2 mg/kg/day (plasma cholesterol; [5]) [%] | change in vivo at 0.2 mg/kg/day (plasma cholesterol; po) [%] |
| --- | --- | --- | --- | --- | --- | --- | --- | --- | --- |
| Cc1cc(OCP(C)(=O)O)cc(C)c1Cc1ccc(O)c(C(C)C)c1 [Compound 70, [3,5-dimethyl-4-(4′-hydroxy-3′-iso-propylbenzyl)phenoxymethyl]methylphosphinic acid] | 183 | 5.4 | – | – | -32.8 | demonstrated cholesterol lowering effects | no changes in any of the cardiovascular parameters | – | – |
| CCOP(=O)(O)COc1cc(C)c(Cc2ccc(O)c(C(C)C)c2)c(C)c1 [Compound 69-1, [3,5-dimethyl-4-(4′-hydroxy-3′-iso-propylbenzyl)phenoxy]methylphosphonic acid monoethyl ester] | – | – | – | – | – | demonstrated cholesterol lowering effects | no changes in any of the cardiovascular parameters | – | – |
| Cc1cc(OCP(=O)(O)O)cc(C)c1Cc1ccc(O)c(Cc2ccc(F)cc2)c1 [Compound 40, [3,5-dimethyl-4-[3′-(4-fluoro-benzyl)-4′-hydroxy-benzyl]phenoxy]methylphosphonic acid] | 30 | 1.1 | – | – | -27.3 | – | – | -64.2 | – |
| O=P(O)(O)Cc1cc(Cl)c(Oc2ccc(O)c(Cc3ccc(F)cc3)c2)c(Cl)c1 [Compound 11, 3,5-dichloro-4-[3′-(4-fluorobenzyl)-4′-hydroxyphenoxy]benzylphosphonic acid] | 121 | 30.3 | – | – | -5.1 | – | – | -36.4 | – |
| Cc1cc(OCP(=O)(O)O)c(I)c(C)c1Cc1ccc(O)c(C(C)C)c1 [Compound 46, [3,5-Dimethyl-4-(4′-hydroxy-3′-iso-propylbenzyl)-2-iodophenoxy]methylphosphonic Acid] | 20 | 2 | – | – | -23.8 | – | – | -29.6 | – |
| COP(=O)(O)Cc1cc(Br)c(Oc2ccc(O)c(C(C)C)c2)c(Br)c1 [Compound 69-2, [3,5-dibromo-4-(4′-hydroxy-3′-isopropylphenoxy)benzyl]phosphonic Acid Monomethyl Ester] | 2.8 | 0.8 | – | – | – | – | – | – | -49.9 |
| CC(C)c1cc(Oc2c(Br)cc(CCP(=O)(O)O)cc2Br)ccc1O [Compound 67, 2-[3,5-dibromo-4-(4′-hydroxy-3′-isopropylphenoxy)phenyl]ethylphosphonic Acid] | 37 | 1.8 | – | – | -17 | – | – | – | – |
| Cc1cc(OCP(=O)(O)O)cc(C)c1Cc1ccc(O)c(C2CC2)c1 [Compound 48, [4-(3′-cyclopropyl-4′-hydroxybenzyl)-3,5-dimethylphenoxy]methylphosphonic acid] | 129 | 9 | – | – | – | – | – | -23.4 | – |
| Cc1cc2[nH]c(P(=O)(O)O)cc2c(C)c1Oc1ccc(O)c(C(C)C)c1 [Compound 66] | 863 | 121 | – | – | -12.5 | – | – | -42.9 | – |
| Cc1cc(OCP(=O)(O)O)cc(C)c1Oc1ccc(O)c(C(C)C)c1 [Compound 31, [3,5-dimethyl-4-(4′-hydroxy-3′-iso-propylphenoxy)phenoxy]methylphosphonic acid] | 540 | 73 | – | – | – | – | – | -21.1 | – |
| Cc1cc(NCP(=O)(O)O)cc(C)c1Cc1ccc(O)c(C(C)C)c1 [Compound 47, [3,5-Dimethyl 4-(4′-hydroxy-3′-iso-propylbenzyl)-phenylamino]methylphosphonic Acid] | 24.3 | 2.5 | – | – | – | – | – | -29.3 | – |
| CC(C)c1cc(Oc2c(Cl)cc(CP(=O)(O)O)cc2Cl)ccc1O [Compound 19, [3,5-dichloro-4-(4′-hydroxy-3′-iso-propylphenoxy)]benzylphosphonic acid] | – | – | 304 | 52 | – | – | – | -19 | – |
| Cc1cc(OCP(=O)(O)O)cc(C)c1Cc1ccc(F)c(C(C)C)c1 [Compound 27, [3,5-dimethyl-4-(4′-fluoro-3′-iso-propylbenzyl)phenoxy]methylphosphonic acid] | > 2000 | > 2000 | – | – | – | – | – | -20.8 | – |
| CC(C)c1cc(Oc2c(Cl)cc(NCP(=O)(O)O)cc2Cl)ccc1O [Compound 22, [3,5-dichloro-4-(4′-hydroxy-3′-iso-propylphenoxy)phenylamino]methylphosphonic acid] | 186 | 31 | – | – | -16.5 | – | – | -44 | – |
| Cc1cc2oc(P(=O)(O)O)cc2c(C)c1Cc1ccc(O)c(C(C)C)c1 [Compound 45, [4,6-Dimethyl-5-(4′-hydroxy-3′-iso-propyl)benzyl]benzofuran-2-phosphonic Acid] | 216 | 14 | – | – | -40.4 | – | – | -46.3 | – |
| O=P(O)(O)Cc1cc(I)c(Oc2ccc(O)c(I)c2)c(I)c1 [Compound 6, 3,5-diiodo-4-(4′-hydroxy-3′-iodophenoxy)benzylphosphonic acid] | 16 | – | – | 26 | – | – | – | -20.5 | – |
| COP(=O)(O)COc1cc(C)c(Cc2ccc(O)c(C(C)C)c2)c(C)c1 [Compound 69, [3,5-dimethyl-4-(4′-hydroxy-3′-iso-propylbenzyl)phenoxy]methylphosphonic acid monomethyl ester] | 13.5 | 3 | – | – | – | demonstrated cholesterol lowering effects | no changes in any of the cardiovascular parameters | – | -41.9 |
